From the supplement of paper PMC11061612 come the findings set out here.

What all share (test): Bliss excess, mean over the matrix (fraction); higher = more synergy
Assay [1] concerns TGBC11TKB (Gastric Carcinoma). An outline of the steps: (§1)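 Cell lines grown in DMEM/F12 or RPMI with 10% FBS were plated in 1536-well plates and held 24 hours at 37°C, 5% CO2 before 72 hours of exposure to two-drug dose matrices, with DMSO typically at 0.2%. CellTiter-Glo 2.0 luminescence gave viability, which was converted to inhibition. Vehicle wells were set to 0 and blank wells to 1. Combination Emax is the second-highest inhibition in the matrix, and Bliss excess is the observed combination effect minus the expected EA + EB − EA·EB, where EA and EB are the single-agent effects.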

For assay [2], the system named is SCC-3 (B-Cell Non-Hodgkin's Lymphoma). The procedure, abridged:
as §1

Assay [3] deals with JHH-7 (Hepatocellular Carcinoma). The procedure, abridged:
as §1

For a further assay, the system named is U-87-MG (Glioblastoma). The procedure, abridged: as §1
The test system of assay [4] is KU-19-19 (Bladder Carcinoma). An outline of the steps:
as §1

For the next assay, the system named is A704 (Kidney Carcinoma). An outline of the steps: as §1
The test system of assay [5] is OCUB-M (Breast Carcinoma). An outline of the steps:
as §1

Another assay deals with EW-3 (Ewing's Sarcoma). An outline of the steps:
as §1

The test system of assay [6] is MFE-319 (Endometrial Carcinoma). An outline of the steps:
as §1

Assay [7] has as its system DG-75 (Burkitt's Lymphoma). The procedure, abridged: as §1
Assay [8] relates to HC-1 (Other Blood Carcinomas). The procedure, abridged: as §1
The test system of assay [9] is KP-2 (Pancreatic Carcinoma). An outline of the steps: as §1
Assay [10] relates to HuP-T3 (Pancreatic Carcinoma). The procedure, abridged: as §1
Assay [11] deals with KLE (Endometrial Carcinoma). An outline of the steps: as §1

`COc1nnc2ccc(N3CCC(c4ccc(OCCN5CCN(C)C(=O)[C@H]5C)cc4)CC3)nn12` [AZD5153] + Cc1c2c(nn1C)CSCc1cc(n(C)n1)CSc1cc(c3ccccc3c1)OCCCc1c(C(=O)O)n(C)c3c-2c(Cl)ccc13 [AZD5991] (first compound max 1 µM, 7x7, partner max 1 µM): the Bliss excess in assay [1] was -0.0666; in assay [2] it was 0.029; in [3], -0.0306; in the assay with U-87-MG (Glioblastoma), 0.0336; in assay [4] it was -0.0634; with A704 (Kidney Carcinoma), -0.0297. Also, the Bliss excess in assay [5] is 0.0063; in the assay on EW-3 (Ewing's Sarcoma) it was 0.0114; in [6], -0.0227; in assay [7] it was -0.0432; in assay [8], 0.0424; in [9], 0.0098. Besides, the figures for the Bliss excess in assay [10] and in assay [11] were 0.0051 and -0.0228, respectively.
In the case of `CC(=O)c1c(C)c2cnc(Nc3ccc(N4CCNCC4)cn3)nc2n(C2CCCC2)c1=O` [Palbociclib] + CN(CC[C@H](CSC1=CC=CC=C1)NC2=C(C=C(C=C2)S(=O)(=O)NC(=O)C3=CC=C(C=C3)N4CCC(CC4)[C@H](C5=CC=CC=C5C6=CC=C(C=C6)Cl)O)S(=O)(=O)C(F)(F)F)CCO [AZD4320] (first compound max 10 µM, 7x7, partner max 1 µM), the Bliss excess in assay [2] was -0.0046; in the assay on U-87-MG (Glioblastoma), -0.0528; in assay [4] it was -0.0482; with A704 (Kidney Carcinoma) it was -0.0376; in [6], -0.0554; in assay [7], -0.0373. For the same molecule, the Bliss excess in [8] is 0.0001; in [9], -0.0731; in assay [10] it was -0.074; in assay [11], -0.0276.
For the molecule `COc1nnc2ccc(N3CCC(c4ccc(OCCN5CCN(C)C(=O)[C@H]5C)cc4)CC3)nn12` [AZD5153] + CN(CC[C@H](CSC1=CC=CC=C1)NC2=C(C=C(C=C2)S(=O)(=O)NC(=O)C3=CC=C(C=C3)N4CCC(CC4)[C@H](C5=CC=CC=C5C6=CC=C(C=C6)Cl)O)S(=O)(=O)C(F)(F)F)CCO [AZD4320] (first compound max 1 µM, 7x7, partner max 1 µM), the Bliss excess in assay [2] was 0.0235; in the assay on U-87-MG (Glioblastoma), 0.099; in assay [4], 0.0829; in the assay on A704 (Kidney Carcinoma) it was 0.0754; in assay [6] it was -0.0369; in [7] it was -0.0557. Also, the Bliss excess in [8] is -0.0468; in [9], 0.0546; in assay [10] it was 0.0559; in [11], 0.0847.
For the molecule `Cc1c2c(nn1C)CSCc1cc(n(C)n1)CSc1cc(c3ccccc3c1)OCCCc1c(C(=O)O)n(C)c3c-2c(Cl)ccc13` [AZD5991] + CC1(C)CCC(CN2CCN(c3ccc(C(=O)NS(=O)(=O)c4ccc(NCC5CCOCC5)c([N+](=O)[O-])c4)c(Oc4cnc5[nH]ccc5c4)c3)CC2)=C(c2ccc(Cl)cc2)C1 [Venetoclax] (first compound max 1 µM, 7x7, partner max 1 µM), the Bliss excess in assay [1] is 0.0364; in assay [2] it was 0.017; in assay [3], 0.0183; with U-87-MG (Glioblastoma) it was -0.0877; in [4], 0.0578; in the assay on A704 (Kidney Carcinoma), -0.0306. Also, the Bliss excess was 0.006 in [5]; 0.125 in the assay on EW-3 (Ewing's Sarcoma); 0.0377 in [6]; -0.0246 in [7]; 0.0157 in [9]; -0.0358 in assay [10]. In addition, the Bliss excess in assay [11] was -0.0505.
`C[C@@H](c1ccc2nccn2c1)n1nnc2ncc(-c3cnn(C)c3)nc21` [Savolitinib] + CN(CC[C@H](CSC1=CC=CC=C1)NC2=C(C=C(C=C2)S(=O)(=O)NC(=O)C3=CC=C(C=C3)N4CCC(CC4)[C@H](C5=CC=CC=C5C6=CC=C(C=C6)Cl)O)S(=O)(=O)C(F)(F)F)CCO [AZD4320] (first compound max 1 µM, 7x7, partner max 1 µM): the Bliss excess in [2] is -0.0083; in the assay with U-87-MG (Glioblastoma), -0.143; in assay [4] it was -0.0259; in the assay with A704 (Kidney Carcinoma), -0.0766; in assay [6] it was -0.0736; in [7] it was -0.0338. Also, the Bliss excess was -0.0254 in assay [8], -0.0136 in [9], -0.0586 in [10] and -0.0664 in [11].
Consider `CCN(CCO)CCCOc1ccc2c(Nc3cc(CC(=O)Nc4cccc(F)c4)[nH]n3)ncnc2c1` [AZD2811] + C[C@@H]1COCCN1C2=NC(=NC(=C2)C3(CC3)[S@](=N)(=O)C)C4=C5C=CNC5=NC=C4 [AZD6738] (first compound max 1 µM, 7x7, partner max 10 µM), for which the Bliss excess was -0.0091 in [1]; 0.0411 in assay [2]; -0.048 in assay [3]; -0.0384 in [4]; -0.0087 in the assay on A704 (Kidney Carcinoma); -0.107 in assay [5]. The Bliss excess in the assay with EW-3 (Ewing's Sarcoma) is -0.0152; in assay [6], -0.0472; in assay [7], -0.0611; in [8], -0.007; in [9] it was -0.0084; in assay [10], -0.067. Moreover, in [11], the Bliss excess was -0.0262.
As to `CCN(CCO)CCCOc1ccc2c(Nc3cc(CC(=O)Nc4cccc(F)c4)[nH]n3)ncnc2c1` [AZD2811] + O=C(c1cc(Cc2n[nH]c(=O)c3ccccc23)ccc1F)N1CCN(C(=O)C2CC2)CC1 [Olaparib] (first compound max 1 µM, 7x7, partner max 10 µM), the Bliss excess was 0.0524 in [1]; 0.0494 in assay [2]; 0.0118 in assay [3]; 0.0173 in assay [4]; -0.0195 in the assay with A704 (Kidney Carcinoma); -0.0413 in assay [5]. Moreover, the Bliss excess with EW-3 (Ewing's Sarcoma) is -0.103; in assay [6], 0.0376; in [7], 0.0063; in assay [8], 0.0928; in [9], -0.0123; in [10] it was -0.0195. Besides, the Bliss excess in assay [11] is -0.282.
`CN(C)CCCOc1ccc(-c2ccc3ncc4c(c3c2)n(C2CCOCC2)c(=O)n4C)cn1` [AZD0156] + CCN(CCO)CCCOc1ccc2c(Nc3cc(CC(=O)Nc4cccc(F)c4)[nH]n3)ncnc2c1 [AZD2811] (first compound max 1 µM, 7x7, partner max 1 µM): the Bliss excess is 0.0298 in assay [1]; 0.112 in [2]; -0.0296 in [3]; 0.0358 in assay [4]; -0.039 in the assay on A704 (Kidney Carcinoma); -0.0736 in assay [5]. Besides, the Bliss excess with EW-3 (Ewing's Sarcoma) is -0.0458; in assay [6], -0.0431; in assay [7], 0.057; in [8], -0.008; in assay [9], -0.0086; in assay [10], -0.0379. For the same molecule, the Bliss excess in assay [11] was -0.0232.
